The subject of series [1] is HeLa cells (EGFR+/-). The series can be described thus: Cell killing / cell viability, HeLa cells.
Series [2] deals with A2058 cells (EGFR-).
In series [3] the test system is A431 cells (EGFR++/HER2+/-/CD71+).
Series [4] has as its system HSP27 mRNA in A431 cells (EGFR++). The series can be described thus: HSP27 gene silencing in A431 cells. It is filed as cell-based, human. The method, then: (§1) Cells were seeded in DMEM (PAN-Biotech GmbH) supplemented with 10% fetal bovine serum (PAN-Biotech GmbH) and 1% penicillin/streptomycin (PAN-Biotech GmbH), in a 96 well plate at 5,000 c/w in 100 μL/well and incubated overnight at 37° C. and 5% CO2. The next day samples were prepared in DMEM and cells were treated.
(§2) RNA isolation and Qper analysis was performed according to standard procedures and protocols.

Series [5] relates to HSP27 mRNA in A2058 cells (EGFR-). In words: HSP27 gene silencing in A2058 cells. It is filed as cell-based, human. Particulars: titrated + fixed 4000 nM SO1861-EMCH, nM of HSP27BNA or of conjugate. The method, then: as §1, §2
For series [6], the system named is SK-BR-3, JIMT-1, MDA-MB-468, A431, CaSki, HeLa, A2058. In words: Control treatments, relative cell viability on all cell lines. Particulars: wide range of toxin concentrations, up to 100.000 pM. It counts as cell-based, human.

Turning to `CC(=O)OC1C(C)OC(OC2C(C)OC(OC(=O)[C@]34CCC(C)(C)CC3C3=CCC5[C@@]6(C)CC[C@H](OC7OC(C(=O)O)C(O)C(OC8OCC(O)C(O)C8O)C7OC7OC(CO)C(O)C(O)C7O)[C@@](C)(/C=N/NC(=O)CCCCCN7C(=O)C=CC7=O)C6CC[C@@]5(C)[C@]3(C)C[C@H]4O)C(OC3OC(C)C(OC4OCC(O)C(OC5OC(CO)C(O)C(O)C5O)C4O)C(O)C3O)C2O)C(O)C1OC1OCC(O)C(O)C1O` (some centres unmarked) [SO1861-EMCH], the “concentration above which general toxicity is seen without EGFdianthin” value in series [1] (single compound), in series [2] (single compound) and in series [3] (single compound) was greater than 25.000 nM each time. In addition, the “IC50 cell viability reduction” value in series [2] (titrated + fixed […] EGFdianthin) is given as “not affected at all”.
Regarding `CC(=O)OC1C(C)OC(OC2C(C)OC(OC(=O)[C@]34CCC(C)(C)CC3C3=CCC5[C@@]6(C)CC[C@H](OC7OC(C(=O)O)C(O)C(OC8OCC(O)C(O)C8O)C7OC7OC(CO)C(O)C(O)C7O)[C@@](C)(C=O)C6CC[C@@]5(C)[C@]3(C)C[C@H]4O)C(OC3OC(C)C(OC4OCC(O)C(OC5OC(CO)C(O)C(O)C5O)C4O)C(O)C3O)C2O)C(O)C1OC1OCC(O)C(O)C1O` (some centres unmarked) [SO1861], the “IC50 cell viability (general toxicity)” value in series [1] (substance alone, in absence of EGFdianthin) is reported as “strong cell viability reduction”. The IC50 cell killing entry in series [2] (substance alone, no partner) is on record as “strong cell viability reduction”; in series [3] (substance alone, no partner), “strong cell viability reduction”.
In the case of “HSP27BNA: antisense BNA oligo targeting HSP27 mRNA, sequence 5′-GGCacagccagtgGCG-3′ (antisense GGCACAGCCAGTGGCG; BNA modifications)”, the IC50 worked out at 10 nM in series [4] (titrated + fixed 28.6 nM or 77 nM cetuximab-(Cys-L-SO1861)^3.9); 10 nM in series [4] (titrated + fixed 4000 nM SO1861-EMCH, nM of HSP27BNA or of conjugate); 10 nM in series [5].
For saporin, in series [6], the “influence on cell viability” value is recorded as “do not or hardly have any influence on cell viability”.

(Values after patent publication US20220218837A1, “DRUG CONJUGATE” (priority 2018, published 2022).)
